{
  "source": "paper PMC9481570",
  "about": "“A small molecule antagonist of SMN disrupts the interaction between SMN and RNAP II” (Nature Communications, 2022)",
  "assay_in_all_cases": "Affinity-purification and mass spectrometry (AP-MS) chemical proteomics, all proteins;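 as to Difference: 200 µM free competitor with 20 µM biotin probe overnight in lysate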",
  "assay_type_in_all_cases": "binding",
  "key": {"[1]": {"target": "T1, proteins displaced from immobilized biotin-Cmpd 1 pulldowns (U2OS cell lysate) (Homo sapiens, UniProt Q9BSJ8)", "T1 construct": "endogenous in cells; host or cells: U2OS", "T1 sequence (Q9BSJ8 whole entry)": "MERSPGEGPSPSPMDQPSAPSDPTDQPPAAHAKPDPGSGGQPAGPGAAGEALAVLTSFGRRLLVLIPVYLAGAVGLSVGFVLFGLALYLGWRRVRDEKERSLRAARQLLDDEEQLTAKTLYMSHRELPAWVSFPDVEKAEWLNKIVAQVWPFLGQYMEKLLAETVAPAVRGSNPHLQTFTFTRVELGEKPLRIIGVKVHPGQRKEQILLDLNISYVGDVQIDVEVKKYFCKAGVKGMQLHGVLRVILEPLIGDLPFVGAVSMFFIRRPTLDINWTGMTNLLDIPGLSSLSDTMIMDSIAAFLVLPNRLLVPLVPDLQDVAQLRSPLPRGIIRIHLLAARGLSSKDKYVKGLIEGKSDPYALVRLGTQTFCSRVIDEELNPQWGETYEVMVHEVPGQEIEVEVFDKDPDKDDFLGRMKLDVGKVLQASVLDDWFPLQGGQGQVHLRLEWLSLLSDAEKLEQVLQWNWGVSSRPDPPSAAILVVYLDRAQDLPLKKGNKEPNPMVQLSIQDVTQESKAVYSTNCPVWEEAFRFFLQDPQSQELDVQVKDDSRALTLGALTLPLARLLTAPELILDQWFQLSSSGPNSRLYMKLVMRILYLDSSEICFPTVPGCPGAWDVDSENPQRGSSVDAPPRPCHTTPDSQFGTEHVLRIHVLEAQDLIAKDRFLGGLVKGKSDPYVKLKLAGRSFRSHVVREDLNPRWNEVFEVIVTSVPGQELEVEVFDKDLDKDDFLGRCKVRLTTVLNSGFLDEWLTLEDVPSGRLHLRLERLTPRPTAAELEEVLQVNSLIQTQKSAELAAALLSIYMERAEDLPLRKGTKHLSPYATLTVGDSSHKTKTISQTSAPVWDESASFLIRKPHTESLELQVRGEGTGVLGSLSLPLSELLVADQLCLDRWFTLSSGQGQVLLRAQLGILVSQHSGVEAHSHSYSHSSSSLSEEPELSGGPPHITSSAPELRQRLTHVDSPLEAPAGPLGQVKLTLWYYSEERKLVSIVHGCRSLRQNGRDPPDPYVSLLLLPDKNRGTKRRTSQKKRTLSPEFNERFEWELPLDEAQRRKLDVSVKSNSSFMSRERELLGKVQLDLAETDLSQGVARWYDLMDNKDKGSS", "conditions": "GN=ESYT1 (Q9BSJ8)"}, "[2]": {"target": "T2, proteins displaced from immobilized biotin-Cmpd 1 pulldowns (U2OS cell lysate) (Homo sapiens, UniProt P49368)", "T2 construct": "endogenous in cells; host or cells: U2OS", "T2 sequence (P49368 whole entry)": "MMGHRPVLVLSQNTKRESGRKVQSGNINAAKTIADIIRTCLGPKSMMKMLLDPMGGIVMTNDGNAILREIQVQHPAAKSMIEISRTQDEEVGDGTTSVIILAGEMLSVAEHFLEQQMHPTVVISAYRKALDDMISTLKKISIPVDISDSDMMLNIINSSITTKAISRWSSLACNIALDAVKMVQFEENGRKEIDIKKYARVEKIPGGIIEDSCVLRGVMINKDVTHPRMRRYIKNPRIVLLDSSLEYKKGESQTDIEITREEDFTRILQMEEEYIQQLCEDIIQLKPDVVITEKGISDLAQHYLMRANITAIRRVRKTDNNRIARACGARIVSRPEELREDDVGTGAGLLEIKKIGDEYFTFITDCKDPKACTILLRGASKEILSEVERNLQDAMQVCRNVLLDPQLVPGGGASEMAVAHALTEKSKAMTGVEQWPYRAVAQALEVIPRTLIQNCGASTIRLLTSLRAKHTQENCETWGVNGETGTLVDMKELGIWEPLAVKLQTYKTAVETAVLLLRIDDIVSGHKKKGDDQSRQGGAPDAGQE", "conditions": "GN=CCT3 (P49368)"}, "[3]": {"target": "T3, proteins displaced from immobilized biotin-Cmpd 1 pulldowns (U2OS cell lysate) (Homo sapiens, UniProt P04083)", "T3 construct": "endogenous in cells; host or cells: U2OS", "T3 sequence (P04083 whole entry)": "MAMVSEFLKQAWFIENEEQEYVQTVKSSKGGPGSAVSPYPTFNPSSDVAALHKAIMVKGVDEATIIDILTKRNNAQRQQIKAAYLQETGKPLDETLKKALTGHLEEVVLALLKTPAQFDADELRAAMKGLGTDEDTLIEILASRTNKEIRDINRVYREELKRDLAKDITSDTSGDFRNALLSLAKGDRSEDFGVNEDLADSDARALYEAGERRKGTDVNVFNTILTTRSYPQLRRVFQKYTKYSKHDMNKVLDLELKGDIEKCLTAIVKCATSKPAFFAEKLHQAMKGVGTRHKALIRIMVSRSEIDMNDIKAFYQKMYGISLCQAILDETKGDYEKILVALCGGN", "conditions": "GN=ANXA1 (P04083)"}, "[4]": {"target": "T4, proteins displaced from immobilized biotin-Cmpd 1 pulldowns (U2OS cell lysate) (Homo sapiens, UniProt P50991)", "T4 construct": "endogenous in cells; host or cells: U2OS", "conditions": "GN=CCT4 (P50991)"}, "[5]": {"target": "T5, proteins displaced from immobilized biotin-Cmpd 1 pulldowns (U2OS cell lysate) (Homo sapiens, UniProt P55072)", "T5 construct": "endogenous in cells; host or cells: U2OS", "T5 sequence (P55072 whole entry)": "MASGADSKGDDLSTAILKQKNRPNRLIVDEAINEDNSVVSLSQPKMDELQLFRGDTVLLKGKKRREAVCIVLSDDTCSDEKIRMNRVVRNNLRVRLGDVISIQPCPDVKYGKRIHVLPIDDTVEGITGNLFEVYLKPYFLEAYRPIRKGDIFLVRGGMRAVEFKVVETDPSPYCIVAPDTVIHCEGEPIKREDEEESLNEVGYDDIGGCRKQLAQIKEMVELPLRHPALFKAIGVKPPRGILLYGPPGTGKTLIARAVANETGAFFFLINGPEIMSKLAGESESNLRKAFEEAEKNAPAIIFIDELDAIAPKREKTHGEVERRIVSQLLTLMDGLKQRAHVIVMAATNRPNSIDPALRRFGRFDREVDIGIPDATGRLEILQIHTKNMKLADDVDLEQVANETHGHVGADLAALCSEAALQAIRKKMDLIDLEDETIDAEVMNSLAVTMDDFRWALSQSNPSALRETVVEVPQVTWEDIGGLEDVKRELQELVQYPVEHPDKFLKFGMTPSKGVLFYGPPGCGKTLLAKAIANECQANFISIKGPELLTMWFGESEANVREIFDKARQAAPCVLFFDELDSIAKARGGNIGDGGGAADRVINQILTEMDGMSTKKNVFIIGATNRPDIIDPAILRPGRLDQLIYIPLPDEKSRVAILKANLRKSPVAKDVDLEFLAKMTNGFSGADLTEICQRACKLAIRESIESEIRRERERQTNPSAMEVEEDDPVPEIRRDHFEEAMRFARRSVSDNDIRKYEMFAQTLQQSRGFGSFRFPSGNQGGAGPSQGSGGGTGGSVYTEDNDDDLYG", "conditions": "GN=VCP (P55072)"}, "[6]": {"target": "T6, proteins displaced from immobilized biotin-Cmpd 1 pulldowns (U2OS cell lysate) (Homo sapiens, UniProt Q14151)", "T6 construct": "endogenous in cells; host or cells: U2OS", "T6 sequence (Q14151 whole entry)": "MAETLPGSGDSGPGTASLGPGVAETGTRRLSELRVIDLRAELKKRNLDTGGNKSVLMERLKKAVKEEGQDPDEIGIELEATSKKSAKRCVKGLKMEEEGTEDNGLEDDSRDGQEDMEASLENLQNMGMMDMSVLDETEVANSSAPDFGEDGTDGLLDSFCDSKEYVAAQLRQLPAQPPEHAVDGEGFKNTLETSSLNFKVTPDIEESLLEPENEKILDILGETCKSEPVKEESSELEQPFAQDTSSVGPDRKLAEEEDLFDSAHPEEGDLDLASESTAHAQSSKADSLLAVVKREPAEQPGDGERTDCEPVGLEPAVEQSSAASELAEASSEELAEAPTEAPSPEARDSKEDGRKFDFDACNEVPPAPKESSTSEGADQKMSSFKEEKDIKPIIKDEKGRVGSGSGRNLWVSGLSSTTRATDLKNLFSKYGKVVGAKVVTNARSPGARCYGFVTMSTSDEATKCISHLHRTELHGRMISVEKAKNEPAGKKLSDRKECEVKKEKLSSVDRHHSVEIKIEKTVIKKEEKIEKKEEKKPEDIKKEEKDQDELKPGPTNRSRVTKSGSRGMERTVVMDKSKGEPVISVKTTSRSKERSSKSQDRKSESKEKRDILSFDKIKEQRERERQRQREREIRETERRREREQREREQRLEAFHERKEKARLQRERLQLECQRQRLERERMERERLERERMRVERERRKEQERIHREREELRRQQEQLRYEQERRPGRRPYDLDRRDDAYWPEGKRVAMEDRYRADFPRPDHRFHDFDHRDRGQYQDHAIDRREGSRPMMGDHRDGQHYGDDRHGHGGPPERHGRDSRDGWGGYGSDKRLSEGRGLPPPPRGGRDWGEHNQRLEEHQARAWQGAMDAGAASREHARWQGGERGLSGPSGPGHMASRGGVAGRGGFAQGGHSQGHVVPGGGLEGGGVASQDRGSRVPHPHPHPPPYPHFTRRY", "conditions": "GN=SAFB2 (Q14151)"}, "[7]": {"target": "T7, proteins displaced from immobilized biotin-Cmpd 1 pulldowns (U2OS cell lysate) (Homo sapiens, UniProt Q04837)", "T7 construct": "endogenous in cells; host or cells: U2OS", "T7 sequence (Q04837 17-148)": "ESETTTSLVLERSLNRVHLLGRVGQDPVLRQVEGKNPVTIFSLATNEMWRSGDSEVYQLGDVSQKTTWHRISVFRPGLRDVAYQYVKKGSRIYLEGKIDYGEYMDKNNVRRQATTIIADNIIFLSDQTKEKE", "conditions": "GN=SSBP1 (Q04837)"}, "[8]": {"target": "T8, proteins displaced from immobilized biotin-Cmpd 1 pulldowns (U2OS cell lysate) (Homo sapiens, UniProt P16615)", "T8 construct": "endogenous in cells; host or cells: U2OS", "T8 sequence (P16615 whole entry)": "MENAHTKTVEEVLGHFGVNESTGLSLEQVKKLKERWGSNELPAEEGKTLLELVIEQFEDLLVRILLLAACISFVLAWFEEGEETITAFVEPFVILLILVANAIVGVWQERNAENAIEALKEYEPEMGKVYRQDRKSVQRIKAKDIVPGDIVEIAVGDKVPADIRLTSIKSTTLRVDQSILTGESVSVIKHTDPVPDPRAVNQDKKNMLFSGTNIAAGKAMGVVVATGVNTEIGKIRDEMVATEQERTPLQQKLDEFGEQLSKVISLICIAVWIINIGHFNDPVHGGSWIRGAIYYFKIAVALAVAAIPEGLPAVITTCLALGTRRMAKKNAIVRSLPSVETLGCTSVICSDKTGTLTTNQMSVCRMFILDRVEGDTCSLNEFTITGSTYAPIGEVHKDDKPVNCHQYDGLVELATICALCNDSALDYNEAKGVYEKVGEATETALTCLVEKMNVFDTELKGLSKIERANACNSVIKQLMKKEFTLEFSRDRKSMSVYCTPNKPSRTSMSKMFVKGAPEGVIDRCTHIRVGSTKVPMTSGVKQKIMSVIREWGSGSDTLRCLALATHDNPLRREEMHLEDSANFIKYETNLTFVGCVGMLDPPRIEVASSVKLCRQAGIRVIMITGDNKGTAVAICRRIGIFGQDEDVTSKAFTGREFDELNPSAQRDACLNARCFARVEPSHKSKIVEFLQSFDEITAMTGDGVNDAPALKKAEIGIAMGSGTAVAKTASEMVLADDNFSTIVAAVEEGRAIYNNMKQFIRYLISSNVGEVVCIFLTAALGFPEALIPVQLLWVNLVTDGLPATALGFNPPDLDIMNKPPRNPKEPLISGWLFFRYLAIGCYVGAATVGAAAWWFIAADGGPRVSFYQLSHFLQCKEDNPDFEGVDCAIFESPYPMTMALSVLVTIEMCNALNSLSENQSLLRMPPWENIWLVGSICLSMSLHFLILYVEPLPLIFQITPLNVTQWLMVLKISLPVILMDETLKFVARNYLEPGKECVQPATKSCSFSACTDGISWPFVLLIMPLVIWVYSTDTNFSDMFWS", "conditions": "GN=ATP2A2 (P16615)"}, "[9]": {"target": "T9, proteins displaced from immobilized biotin-Cmpd 1 pulldowns (U2OS cell lysate) (Homo sapiens, UniProt Q9NZT1)", "T9 construct": "endogenous in cells; host or cells: U2OS", "conditions": "GN=CALML5 (Q9NZT1)"}, "[10]": {"target": "T10, proteins displaced from immobilized biotin-Cmpd 1 pulldowns (U2OS cell lysate) (Homo sapiens, UniProt O75683)", "T10 construct": "endogenous in cells; host or cells: U2OS", "conditions": "GN=SURF6 (O75683)"}},
  "note": "Several values for one entry are separate records, joined by “and”; a condition that tells them apart may be missing. Equal entries are not always repeated.",
  "data": [
    {"smiles": "Cn1c2c(c(=N)c3c1CCC3)CCC2", "note": "[Compound 1, 4-methyl-2,3,4,5,6,7-hexahydrodicyclopenta[b,e]pyridin-8(1H)-imine]", "values": [
      {"measurement": "Difference", "setting": "[1]; Cmpd minus DMSO, -LOG(P-value) 2.56654", "value": 4.81},
      {"measurement": "iBAQ Cmpd", "setting": "[1]; replicates 1-3", "value": "19.5229 and 18.9864 and 18.8876"},
      {"measurement": "Difference", "setting": "[2]; Cmpd minus DMSO, -LOG(P-value) 0.937615", "value": 0.5386},
      {"measurement": "iBAQ Cmpd", "setting": "[2]; replicates 1-3", "value": "20.7218 and 21.2363 and 20.6211"},
      {"measurement": "Difference", "setting": "[3]; Cmpd minus DMSO, -LOG(P-value) 1.67082", "value": -2.872},
      {"measurement": "iBAQ Cmpd", "setting": "[3]; replicates 1-3", "value": "14.2553 and 14.7701 and 16.566"},
      {"measurement": "Difference", "setting": "[4]; Cmpd minus DMSO, -LOG(P-value) 0.713793", "value": 0.7229},
      {"measurement": "iBAQ Cmpd", "setting": "[4]; replicates 1-3", "value": "21.0359 and 20.6692 and 20.6092"},
      {"measurement": "Difference", "setting": "[5]; Cmpd minus DMSO, -LOG(P-value) 1.20929", "value": 2.227},
      {"measurement": "iBAQ Cmpd", "setting": "[5]; replicates 1-3", "value": "18.6461 and 18.1931 and 16.8577"},
      {"measurement": "Difference", "setting": "[6]; Cmpd minus DMSO, -LOG(P-value) 1.24711", "value": 1.435},
      {"measurement": "iBAQ Cmpd", "setting": "[6]; replicates 1-3", "value": "18.2139 and 16.8013 and 17.9077"},
      {"measurement": "Difference", "setting": "[7]; Cmpd minus DMSO, -LOG(P-value) 1.29916", "value": 1.094},
      {"measurement": "iBAQ Cmpd", "setting": "[7]; replicates 1-3", "value": "21.1032 and 19.9004 and 20.5342"},
      {"measurement": "Difference", "setting": "[8]; Cmpd minus DMSO, -LOG(P-value) 0.792118", "value": 1.325},
      {"measurement": "iBAQ Cmpd", "setting": "[8]; replicates 1-3", "value": "18.9227 and 18.7034 and 17.2331"},
      {"measurement": "Difference", "setting": "[9]; Cmpd minus DMSO, -LOG(P-value) 2.02756", "value": -2.389},
      {"measurement": "iBAQ Cmpd", "setting": "[9]; replicates 1-3", "value": "18.8431 and 20.0939 and 20.182"},
      {"measurement": "Difference", "setting": "[10]; Cmpd minus DMSO, -LOG(P-value) 1.38004", "value": 2.68},
      {"measurement": "iBAQ Cmpd", "setting": "[10]; replicates 1-3", "value": "19.6513 and 20.3325 and 21.9506"}
    ]}
  ]
}
